Converted amounts (≈) assume the structure as drawn. Read-outs that look alike come from different tables or passages of the source.
How the values were obtained:
[1] = system: E. brunetti; assay: efficacy against coccidial infection in chickens (lesion scores); conditions: in diet of chickens at 15 to 120 ppm; six days
[2] = system: coccidial infections; assay: activity against coccidial infections in poultry (lesion scores); conditions: in diet of chickens
[3] = system: rumen fluid; assay: in vitro rumen technique, propionic acid production; format: cell-based, cow; conditions: 20 micrograms per milliliter, 39° C., about 16 hours, read-out: increase in the production of propionic acid over control solution
Protocol: The value of animal feeds has generally been determined directly by feeding the animal. British Patent Specification No. 1,197,826 details an in vitro rumen technique whereby the changes occurring in feed brought about by microorganisms are measured more readily and with great accuracy in the evaluation of animal feeds. This technique involves the use of an apparatus in which the digestive processes of the animals are conducted and studied in vitro. The animal feeds, rumen inoculum and various growth promotants are introduced into and withdrawn from a laboratory unit under carefully controlled conditions and the changes taking place are studied critically and progressively during the consumption of the feed by the microorganisms. […] The change in propionic acid content is expressed as percent of the propionic acid content found in the control rumen fluid. Long term in vivo feeding studies are used to show a reliable correlation between propionic acid increase in the rumen fluid and improved animal performance. […]
After incubation, 5 ml. of the sample is mixed with 1 ml. of 25% metaphosphoric acid. […] Samples are then analyzed by gas-liquid chromatography by the method of D. W. Kellog, J. Dairy Science, 52, 1690, 1969. Peak heights for acetic, propionic and butyric acids are determined for samples from untreated and treated incubation flasks.

[4] = system: E. acervulina; assay: efficacy against coccidial infection in chickens (lesion scores); conditions: in diet of chickens at 15 to 120 ppm; five days
[5] = system: Eimeria tenella; assay: as above; conditions: in diet of chickens at 15 to 120 ppm; six days
[6] = system: E. maxima; assay: as above; conditions: in diet of chickens at 15 to 120 ppm; six days
[7] = system: E. necatrix; assay: as above; conditions: in diet of chickens at 15 to 120 ppm; six days
[8] = system: Clostridium perfringens; assay: microbe, parasite or virus in culture; format: cell-based; conditions: 24 h
[9] = system: Actinomyces pyogenes; assay: in vitro antibacterial MIC (tube dilution, 24 hours); format: cell-based
Protocol: (§1) In Table I, below, the results of in vitro tests are summarized. For this test each organism is inoculated in a series of test tubes containing nutrient medium and varying concentrations of Antibiotic UK No.-61,689 to determine the minimal concentration of the compound in μg./ml. which inhibits the growth of the organism over a period of 24 hours (MIC).

[10] = system: Treponema hyodysenteriae; assay: as above; format: cell-based; conditions: Brachyspira hyodysenteriae
Protocol: as §1

With COC1CCC(OC2CC(C3OC(C)(O)C(C)CC3C)OC2C2(C)CCC(C3(C)CCC4(CC(O)C(C)C(C(C)C5OC(O)(CC(=O)O)C(C)C(O)C5OC)O4)O3)O2)OC1C (stereo not shown) [Antibiotic UK No.-61,689] as the molecule, how does the “controlling infections due to E. brunetti” value [1] read?
The value was “effective in controlling infections”.

What about the “activity against coccidial infections in poultry” value [2] of the same molecule?
Its value is “excellent activity”.

And the activation at 20 µg/mL [3]?
Its activation at 20 µg/mL is about 80%.

And the “controlling infections due to E. acervulina” value [4]?
Its value is “effective in controlling infections”.

What about the “controlling infections due to Eimeria tenella” value [5] of the same molecule?
Its value is “effective in controlling infections”.

And the “controlling infections due to E. maxima” value [6]?
The value was “effective in controlling infections”.

And the “controlling infections due to E. necatrix” value [7]?
The value was “effective in controlling infections”.

And the MIC ([8]; strain 10A006)?
The MIC was 25 µg/mL (≈ 28.6 µM).

And the MIC ([8]; strain 10A009)?
Its MIC is 3.12 µg/mL (≈ 3.57 µM).

And the MIC ([9]; Trueperella pyogenes, strain 14D002, read-out: MIC)?
Its MIC is 0.39 µg/mL (≈ 0.447 µM).

What about the MIC ([9]; strain 14D008) of the same molecule?
Its MIC is 0.39 µg/mL (≈ 0.447 µM).

And the MIC ([9]; strain 14D011)?
The MIC was 0.39 µg/mL (≈ 0.447 µM).

What about the MIC ([10]; strain 94A001) of the same molecule?
Its MIC is 6.25 µg/mL (≈ 7.16 µM).

What about the MIC ([10]; strain 94A002) of the same molecule?
The MIC was 6.25 µg/mL (≈ 7.16 µM).

What about the MIC ([10]; strain 94A007) of the same molecule?
Its MIC is 3.12 µg/mL (≈ 3.57 µM).

And the MIC ([10]; strain 94A008)?
The MIC was 3.12 µg/mL (≈ 3.57 µM).
